The values below come from BindingDB's records for doi:10.1021/jm9004225 (National Institute On Drug Abuse and The National Institute …, 2009).

This experiment is described as follows: Displacement of [3H]U69593 from human recombinant kappa opioid receptor expressed in CHO cells.

Bounds are passed on as bounds.

For `CC[C@]12CCN(C)C[C@H]1Oc1ccc(O)cc12` [4aR,9aS-(+)-cis-4a-Ethyl-2-methyl-1,2,3,4,4a,9a-hexahydrobenzofuro[2,3-c]pyridin-6-ol], the Ki was over 10 µM.
